Reference: article PMC6369428, “Efflux Inhibitor Bicalutamide Increases Oral Bioavailability of the Poorly Soluble Efflux Substrate Docetaxel in Co-Amorphous Anti-Cancer Combination Therapy” (Molecules, 2019)
Values after ≈ are worked out from the molar mass of the structure shown. Read-outs that look alike come from different tables or passages of the source. Each block holds one molecule with its values, some of them ahead of it.

Columns and labels:
[1] = Physical stability on storage, analysed by XRPD; assay type: physicochemical; details: 1.5 years at 4 °C under dry conditions
Description: XRPD was performed using an X’Pert PANalytical PRO X-ray diffractometer (PANalytical, Almelo, The Netherlands) using Cu Kα radiation (λ = 1.54 Å), and an acceleration voltage and current of 45 kV and 40 mA, respectively. The powder samples were scanned in reflectance mode from 5° to 35° 2ϴ with a scan speed of 0.067° 2ϴ and a step size of 0.026° 2ϴ. Data were collected and analyzed using the software X’Pert Data Collector (PANalytical, Almelo, The Netherlands).
The co-amorphous binary DTX-BIC mixture as well as the pure individual amorphous drugs were stored in a desiccator under dry conditions (silica gel) at 4 °C and analysed by XRPD after 1.5 years of storage.

[2] = Dissolution studies in FaSSIF biorelevant medium; assay type: physicochemical; details: 37 °C
Description: The concentrations of DTX and BIC were determined using a reversed-phase high-performance liquid chromatography (HPLC) system (Dionex Corporation, CA, USA) equipped with an ASI-100 autosampler, Dionex Ultimate 300 UV-Visible detector and pump. Chromatographic separation was achieved using a XB-C18 Phenomenex Kinetex column of 2.6 μm (2.1 × 50 mm) (Torrance, CA, USA) at 30 °C. The mobile-phase consisted of a mixture of A) 95% water 5% acetonitrile (ACN) and 0.1% trifluoroacetic acid (TFA) and B) 95% ACN 5% water 0.1% TFA, and was used at a flow rate of 0.5 mL/min in isocratic mode (60% A 40% B). Peaks were analysed at 270 nm for BIC and 230 nm for DTX. Linear calibration curves in the range of 0.25–5 μg/mL for both BIC and DTX were obtained in acetonitrile. Elution times were 4.8 min for BIC and 6.4 min for DTX.
For the dissolution studies, powder formulations were initially suspended in PBS in order to avoid powder agglomerates. Immediately after suspension, 100 µL aliquots were added to each well of a 12-well plate containing 2.9 mL dissolution medium/well. The concentrations of the drugs in the dissolution medium were 3 times higher than their respective saturation solubilities. […] The obtained samples were centrifuged at 10,000 g for 10 min and the supernatant was then analysed by HPLC (see above). […]

[3] = In vivo pharmacokinetics study in fasted rats; design: species or system Sprague Dawley rats; details: for DTX AUC / BIC AUC: mean ± SEM
Description: Healthy female and male Sprague Dawley rats of 7 weeks age weighing 140–240 g (Charles River, Denmark), were used for the experiments. The rats were housed with free access to water and food in groups of two rats per cage under controlled environmental conditions (constant temperature and humidity with a 12 h day-night cycle). All animal experimental work was carried out under the protocol approved by the Danish Animal Experiments Inspectorate (approval no. 2014-15-0201-00031), and all the procedures used were refined to provide maximal comfort and minimal stress to the animals.
All animals were fasted for approximately 12 h prior to administration of the drug formulations and food was provided to rats approximately 6 h after drug administration, although free access to water was allowed during fasting. The nine groups studied, each consisting of 6–8 rats, were assigned randomly and included two groups receiving an intravenous bolus injection of either DTX or BIC corresponding to 1 mg/rat (4–7 mg/kg) dissolved in saline: DMSO (50:50 v/v) with 1% Tween 80, administered in the tail vein. The remaining seven groups were orally administered with DTX or BIC or a combination of these at a fixed dose of 30 mg/kg for DTX and 16 mg/kg for BIC. For DTX, four groups of animals were studied, one group administered with crystalline DTX (crystalline), one group administered with a physical mixture of crystalline DTX and BIC (physical mix), one group administered with amorphous DTX (amorphous) and one group administered with the co-amorphous mixture of DTX and BIC (co-amorphous). For BIC three groups of animals were studied, one group administered with crystalline BIC (crystalline), one groups administered with a physical mixture of crystalline DTX and BIC (physical mix) and one group administered with the co-amorphous mixture of DTX and BIC (co-amorphous). Drug powders were suspended in 0.5 mL PBS and the suspension was immediately administered to the rats using a flexible cannula. Blood samples (150–200 µL) were collected in EDTA coated tubes from puncturing of the tail vein at 0.5, 1, 2, 4, 6 and 24 h after drug administration. The rats were euthanized by cervical dislocation after collection of the final blood sample. Plasma samples were obtained by centrifugation of blood samples at 3600 g (10 min, 4 °C) and transferred into microtubes. The plasma samples were stored at −80 °C until used for further analysis.
The bioanalysis of DTX and BIC in rat plasma was carried out using HPLC coupled with mass spectrometric (MS) detection. Prior to analysis liquid-liquid extraction was performed on the plasma samples (50 μL) by adding 100 μL of ethyl acetate and subsequently vortexing the vial for protein precipitation. The vials were centrifuged and 100 μL supernatant was carefully transferred to HPLC vials with inserts and evaporated using compressed air. The dried content of the vial was reconstituted using 150 μL ACN:H2O (1:1 v/v) and measured by LC-MS/MS.
LC-MS/MS analysis was performed using a 1290 Agilent Infinity Series system (Agilent Technologies, Palo Alto, CA, USA) coupled to an AB Sciex 4500 QTrap MS (Applied Biosystems, Foster City, CA, USA). A HPLC-MS method was developed for each compound. In both cases chromatographic separation was performed using a Phenomenex Kinetex (Torrance, CA, USA) C18 (50 × 2.1 mm, 2.6 μm) column with a Phenomenex C18 SecurityGuard™ Ultra (2.1 mm, 2 µm) guard column and the mobile phases consisted of (A) MilliQ water with 0.1% formic acid and (B) ACN with 0.1% formic acid. The column and autosampler tray were set at 40 °C and 6 °C, respectively, and the flow rate was set at 0.25 mL/min. The injection volume was set at 1 μL and 5 μL for BIC and DTX, respectively. For BIC, the elution gradient started at 20% B at time 0 and increased to […] at time 3.0 min. Hereafter B was held at 99% until 4.3 min before re-equilibrating the column until 5.5 min. The retention time for BIC was 3.12 min. […]

[4] = Saturation solubility studies in FaSSIF; assay type: physicochemical; details: crystalline drugs, FaSSIF pH 6.5, after 72 h with excess drug powder
Description: DTX and BIC saturation solubility studies were conducted in FaSSIF. The biorelevant FaSSIF medium was prepared by adding 218 mg bovine bile extract, 58 mg phosphatidylcholine, 232 mg Tris maleate salt and 395 mg sodium chloride to 100 mL of ultra-purified water and stirring overnight at 37 °C. The medium pH was adjusted to 6.5 with 1 M NaOH before use. Approximately 100 mg of the drugs were mixed with 1.5 mL of the media in plastic tubes, and the suspensions were rotated at 20 rpm for 72 h. The solution was separated from undissolved drug by centrifugation, and aliquots from the saturated solution were filtered through 0.45 µm polyvinylidene difluoride (PVDF) filters. The solubility may potentially have been influenced by exposure to temperature since both, centrifugation and filtration, were conducted at room temperature.
The concentrations of DTX and BIC were determined using a reversed-phase high-performance liquid chromatography (HPLC) system (Dionex Corporation, CA, USA) equipped with an ASI-100 autosampler, Dionex Ultimate 300 UV-Visible detector and pump. Chromatographic separation was achieved using a XB-C18 Phenomenex Kinetex column of 2.6 μm (2.1 × 50 mm) (Torrance, CA, USA) at 30 °C. […] Peaks were analysed at 270 nm for BIC and 230 nm for DTX. […]

[5] = design: method as in Zhang et al. [20]; details: oral drug delivery strategy for DTX (cyclodextrin-based polymeric micelle), mice, ref Zhang et al. [20]; cited from earlier work
[6] = design: method as in Valicherla et al. [19]; details: oral drug delivery strategy for DTX (self-emulsifying drug delivery system), rats, ref Valicherla et al. [19]; cited from earlier work
[7] = DTX in plasma, oral suspension, 30 mg/kg DTX, 30 mg/kg
[8] = oral suspension, 30 mg/kg DTX, Fa = AUCoral/AUCIV × 100, mean ± SEM, 30 mg/kg
[9] = intravenous bolus, 1 mg/rat (4–7 mg/kg)

Structure (SMILES): CC(=O)O[C@@]12CO[C@@H]1C[C@H](O)[C@@]1(C)C(=O)[C@H](O)C3=C(C)[C@@H](OC(=O)[C@H](O)[C@@H](NC(=O)OC(C)(C)C)c4ccccc4)C[C@@](O)([C@@H](OC(=O)c4ccccc4)[C@H]21)C3(C)C [Amorphous DTX, Docetaxel]
DTX Cmax [3, 7]: 19 ng/mL
DTX Tmax [3, 7]: 6 h
DTX AUC [3, 7]: 518 ± 113 ng/mL × 24h
DTX Fa (absolute oral bioavailability) [3, 8]: 0.56 ± 0.12%
physical stability (solid state by XRPD) after storage [1]: remained amorphous
DTX supersaturation behaviour ([2]; DTX in FaSSIF, up to 240 min): does not supersaturate

Structure (SMILES): CC(O)(CS(=O)(=O)c1ccc(F)cc1)C(=O)Nc1ccc(C#N)c(C(F)(F)F)c1 (centres unmarked) [Crystalline BIC, bicalutamide]
BIC AUC ([3]; BIC in plasma, oral suspension, 16 mg/kg BIC): 43.06 ± 4.79 µg/mL × 24h
Cmax ([3]; both sexes, Sprague Dawley, rat, plasma, po, 16 mg/kg, BIC in plasma, oral suspension, 16 mg/kg BIC, read-out: BIC Cmax): 1660 ng/mL
Tmax ([3]; both sexes, Sprague Dawley, rat, plasma, po, 16 mg/kg, BIC in plasma, oral suspension, 16 mg/kg BIC, read-out: BIC Tmax): 6 h
bioavailability ([3]; both sexes, Sprague Dawley, rat, plasma, po, 16 mg/kg, BIC, oral suspension, 16 mg/kg BIC, Fa = AUCoral/AUCIV × 100, mean ± SEM, read-out: BIC Fa (absolute oral bioavailability)): 14 ± 1%

Structure (SMILES): CC(=O)O[C@@]12CO[C@@H]1C[C@H](O)[C@@]1(C)C(=O)[C@H](O)C3=C(C)[C@@H](OC(=O)[C@H](O)[C@@H](NC(=O)OC(C)(C)C)c4ccccc4)C[C@@](O)([C@@H](OC(=O)c4ccccc4)[C@H]21)C3(C)C [Crystalline DTX, Docetaxel]
DTX Tmax [3, 7]: 4 h
DTX Tmax ([3]; DTX in plasma, oral suspension, 30 mg/kg DTX, listed as crystalline DTX, 30 mg/kg): around 1 h
DTX AUC [3, 7]: 185 ± 29 ng/mL × 24h
DTX Fa (absolute oral bioavailability) [3, 8]: 0.20 ± 0.03%
Cmax ([3]; both sexes, Sprague Dawley, rat, plasma, po, 30 mg/kg, DTX in plasma, oral suspension, 30 mg/kg DTX, read-out: DTX Cmax): 15 ng/mL

Structure (SMILES): CC(=O)O[C@@]12CO[C@@H]1C[C@H](O)[C@@]1(C)C(=O)[C@H](O)C3=C(C)[C@@H](OC(=O)[C@H](O)[C@@H](NC(=O)OC(C)(C)C)c4ccccc4)C[C@@](O)([C@@H](OC(=O)c4ccccc4)[C@H]21)C3(C)C [DTX, Docetaxel]
Cmax [5]: 292 ng/mL
relative bioavailability increase [5]: 4.6 fold
Tmax ([3]; both sexes, Sprague Dawley, plasma, intravenous bolus, 1 mg/rat (4–7 mg/kg), read-out: DTX Tmax): 0.5 h
Cmax ([3]; both sexes, Sprague Dawley, rat, plasma, iv, 1 mg, intravenous bolus, 1 mg/rat (4–7 mg/kg), read-out: DTX Cmax): 7210 ng/mL
DTX AUC [3, 9]: 93,196 ± 12,626 ng/mL × 24h
solubility at 72 h [4]: 7.5 ± 1.2 µg/mL (≈ 9.28 µM)
Cmax [6]: 125 ng/mL
relative bioavailability increase [6]: 3.2 fold

Now from value to molecule:

physical stability (solid state by XRPD) after storage [1]: recrystallized
time after which the saturation solubility of BIC is reached ([2]; BIC in FaSSIF): 120 min
Structure (SMILES): CC(O)(CS(=O)(=O)c1ccc(F)cc1)C(=O)Nc1ccc(C#N)c(C(F)(F)F)c1 (centres unmarked) [Amorphous BIC, bicalutamide]

Cmax ([3]; both sexes, Sprague Dawley, rat, plasma, iv, 1 mg, intravenous bolus, 1 mg/rat (4–7 mg/kg), read-out: BIC Cmax): 11300 ng/mL
Tmax ([3]; both sexes, Sprague Dawley, rat, plasma, iv, 1 mg, intravenous bolus, 1 mg/rat (4–7 mg/kg), read-out: BIC Tmax): 0.5 h
BIC AUC [3, 9]: 317 µg/mL × 24h
solubility at 72 h [4]: 3.05 ± 0.9 µg/mL (≈ 7.09 µM)
Structure (SMILES): CC(O)(CS(=O)(=O)c1ccc(F)cc1)C(=O)Nc1ccc(C#N)c(C(F)(F)F)c1 (centres unmarked) [BIC, bicalutamide]
